Literature values as cited in patent US20220370511A1, “METHODS AND COMPOSITIONS FOR ENHANCING OVERALL HEALTH AND LONGEVITY IN MAMMALS” (MYOS CORP., priority 2019, published 2022).

Tests used:
NAD+ metabolism = conditions: chronic supplementation, healthy middle-aged and older adults
[1] = dose of 300 mg/kg/day
[2] = chronic supplementation, healthy middle-aged and older adults

NC(=O)c1ccc[n+]([C@@H]2O[C@H](CO)[C@@H](O)[C@H]2O)c1 [nicotinamide riboside]
stimulation of NAD+ metabolism (NAD+ metabolism): effectively stimulated
adverse effects related to nicotinamide riboside [1]: absent
tolerability [2]: well tolerated
